Assay results as given in US8063225B2, “Tricyclic compound derivatives useful in the treatment of neoplastic diseases, inflammatory disorders and immunomodulatory disorders” (Chembridge Corporation, priority 2006, dated 2011).

Experiments:
K562 = experiment: Cell proliferation inhibition, Cell Titer-Glo, K562; type: cell-based; conditions: Homo sapiens; cell proliferation assay, K562 cells
Summary of the method: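 K562 cells were seeded at 2500-5000 cells per well in white, clear-bottomed 384-well culture plates and treated with dilutions of test compounds for typically 3 days. Viable cells were quantified with the Cell Titer-Glo Luminescent Cell Viability Assay (Promega), which measures total ATP, read on a luminescence plate reader to derive IC50 values for proliferation inhibition.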

Karpas-299 = experiment: Cell proliferation inhibition, Cell Titer-Glo, Karpas-299; type: cell-based; conditions: Homo sapiens; cell proliferation assay, Karpas-299 cells
Summary of the method: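 Karpas 299 cells were seeded into white, clear-bottomed 384-well culture plates at 2500-5000 cells per well and exposed to serial dilutions of test compounds for about 3 days. Viable cell numbers were then measured with the Cell Titer-Glo Luminescent Cell Viability Assay (Promega), which detects total ATP, and IC50 values for proliferation inhibition were derived.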

Ba/F3 = experiment: Cell proliferation inhibition, Cell Titer-Glo, Ba/F3; type: cell-based; conditions: Mus musculus, BaF3; cell proliferation assay, Ba/F3 cells
Summary of the method: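 Ba/F3 cells were seeded at 2500-5000 cells per well in white, clear-bottomed 384-well culture plates and exposed to serial dilutions of test compounds for 3 days. Cell Titer-Glo Luminescent Cell Viability Assay (Promega) reagent, which measures total ATP as an indicator of metabolic activity, was added. Luminescence was read on a multiwell plate reader to derive IC50 values for inhibition of proliferation.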

InsR = biological target: T1, InsR (Homo sapiens, UniProt P06213); experiment: Tyrosine kinase assay (Kinase-Glo or AlphaScreen), InsR; conditions: biochemical tyrosine kinase assay
T1 construct: 6×His- or GST-tagged kinase domain fragments of the corresponding RTKs expressed in baculovirus system; host or cells: baculovirus system
Summary of the method: (§1)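 Recombinant His- or GST-tagged kinase domains from baculovirus were assayed with poly(Glu-Tyr, 4:1) substrate and 10 μM ATP in Tris-HCl pH 7.5 with Mg2+/Mn2+. Kinase-Glo: 37° C for 60 minutes, residual ATP read by luminescence. IC50 from non-linear regression over eight concentrations, 1 nM to 20 μM.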

H929 (multiple myeloma) = experiment: Cell proliferation inhibition, Cell Titer-Glo, H929; type: cell-based; conditions: Homo sapiens, NCI-H929; cell proliferation assay, H929 cells
Method: IGF1R and other tyrosine kinase inhibitors can inhibit the proliferation of certain cancer cell lines indicating their possible therapeutic utility for treating the corresponding cancer types. Cancer cell lines of interest and control normal lines, including CHO, HEK293, BA/F3, MM1, H929, COLO205, PC3, DU145, MCF7, Panc1, ACHN, Hep G2, H460, K562, TT, U87-G, CAOV-3, SK-MEL5, Karpas 299, are plated in white, clear-bottomed 384-well cell culture plates at 2500-5000 cells per well and supplied with dilutions of tested compounds After a desired period of time (typically 3 days), the number of viable cells is quantitated by using Cell Titer-Glo Luminescent Cell Viability Assay (Promega), a cell proliferation assay system based on detection of total amount of ATP present as a measure of cell metabolic activity. The plated cells are mixed with the Cell Titer-Glo developing reagent and counted in a luminescence multiwell plate reader according to the standard manufacturer's protocol to generate IC50 curves for cell proliferation inhibition.
IGF1R and other tyrosine kinase inhibitors can inhibit the proliferation of certain cancer cell lines indicating their possible therapeutic utility for treating the corresponding cancer types. Cancer cell lines of interest and control normal lines, including CHO, HEK293, BA/F3, COLO205, PC3, DU145, MCF7, Panc1, ACHN, Hep G2, H460, K562, TT, U87-MG, CAOV-3, SK-MEL5, Karpas 299 and human multiple myeloma cell lines H929, MM1s, MM1r, UTMC2, CPM2, KMS11, My5, KMS12PE, My7, JJN3, KMS18, U266, SKMM2, RPMI-8226 are plated in white, clear-bottomed 384-well cell culture plates at 2500-5000 cells per well and supplied with dilutions of tested compounds After a desired period of time (typically 3 days), the number of viable cells is quantitated by using Cell Titer-Glo Luminescent Cell Viability Assay (Promega), a cell proliferation assay system based on detection of total amount of ATP present as a measure of cell metabolic activity. The plated cells are mixed with the Cell Titer-Glo developing reagent and counted in a luminescence multiwell plate reader according to the standard manufacturer's protocol to generate IC50 curves for cell proliferation inhibition. Results are typically reported as percent of growth (% viability =(OD72h(compound)−ODday0))/(OD72h(no compound)−ODday0). Alternatively, viable cells are quantitated by using the conventional colorimetric MTT assay. The MTT assay is based on the cleavage of the yellow tetrazolium salt MTT to purple formazan crystal by metabolic active cells. The formazan is then solubilized, and the concentration determined by optical density at 570 nm. The cells plated and incubated with a compound as described above are supplemented with the solution of MTT and incubated for 2-3 hours. The growth medium is removed and dimethyl sulfoxide is added into each well to dissolve the formazan. The absorbance is measured on an ELISA plate reader with a test wavelength of 570 nm and a background subtraction wavelength of 630 nm to obtain sample signal (OD570-OD630). […] The results are reported in terms of IC50 value for a particular compound and a cell line in the standard 3-day proliferation assay using Cell Titer-Glo. […] The results are reported in terms of IC50 value for a particular compound and a cell line in the standard 3-day proliferation assay using MTT assay.

Alk = biological target: T2, Alk (Homo sapiens, UniProt Q9UM73); experiment: Tyrosine kinase assay (Kinase-Glo or AlphaScreen), Alk; conditions: biochemical tyrosine kinase assay
T2 construct: 6×His- or GST-tagged kinase domain fragments of the corresponding RTKs expressed in baculovirus system; host or cells: baculovirus system
Summary of the method: as §1

Jak2 = biological target: T3, Jak2 (Homo sapiens, UniProt O60674); experiment: Tyrosine kinase assay (Kinase-Glo or AlphaScreen), Jak2; conditions: biochemical tyrosine kinase assay
T3 construct: 6×His- or GST-tagged kinase domain fragments of the corresponding RTKs expressed in baculovirus system; host or cells: baculovirus system
Summary of the method: as §1

IGF1R tyrosine kinase = biological target: T4, IGF1R tyrosine kinase (Homo sapiens, UniProt P08069); experiment: IGF1R tyrosine kinase assay (Kinase-Glo ATP depletion or PT66/PT100 AlphaScreen); conditions: biochemical tyrosine kinase assay
T4 construct: 6×His- or GST-tagged kinase domain fragments of the corresponding RTKs expressed in baculovirus system; host or cells: baculovirus system
Summary of the method: as §1

T2 sequence (Q9UM73 1116-1392 limits assumed, species assumed): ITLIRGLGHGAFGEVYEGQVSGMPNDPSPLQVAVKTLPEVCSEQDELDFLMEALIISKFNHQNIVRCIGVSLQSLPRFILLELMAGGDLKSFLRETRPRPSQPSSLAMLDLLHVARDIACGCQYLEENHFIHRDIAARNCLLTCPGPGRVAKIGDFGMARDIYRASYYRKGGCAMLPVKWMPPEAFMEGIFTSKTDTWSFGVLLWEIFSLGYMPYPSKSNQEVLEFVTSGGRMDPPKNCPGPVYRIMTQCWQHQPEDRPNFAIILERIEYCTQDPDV
T4 sequence (P08069 999-1274 limits assumed): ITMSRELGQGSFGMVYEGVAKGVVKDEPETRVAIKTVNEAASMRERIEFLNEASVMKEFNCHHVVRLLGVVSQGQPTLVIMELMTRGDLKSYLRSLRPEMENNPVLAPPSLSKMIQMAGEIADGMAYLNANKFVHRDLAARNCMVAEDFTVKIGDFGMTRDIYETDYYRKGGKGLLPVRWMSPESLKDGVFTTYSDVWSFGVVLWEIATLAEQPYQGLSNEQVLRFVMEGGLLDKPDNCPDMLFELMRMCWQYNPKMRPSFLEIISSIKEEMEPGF
T1 sequence (P06213 1023-1298 limits assumed, species assumed): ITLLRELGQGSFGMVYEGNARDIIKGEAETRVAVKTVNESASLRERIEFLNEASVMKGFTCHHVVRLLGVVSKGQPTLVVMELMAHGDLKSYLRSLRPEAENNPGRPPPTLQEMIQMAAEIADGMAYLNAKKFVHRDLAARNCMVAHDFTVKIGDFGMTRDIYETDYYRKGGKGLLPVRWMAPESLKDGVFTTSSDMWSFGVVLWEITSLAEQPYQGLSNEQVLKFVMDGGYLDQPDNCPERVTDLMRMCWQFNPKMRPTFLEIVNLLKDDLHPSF
T3 sequence (O60674 849-1124 limits assumed, species assumed): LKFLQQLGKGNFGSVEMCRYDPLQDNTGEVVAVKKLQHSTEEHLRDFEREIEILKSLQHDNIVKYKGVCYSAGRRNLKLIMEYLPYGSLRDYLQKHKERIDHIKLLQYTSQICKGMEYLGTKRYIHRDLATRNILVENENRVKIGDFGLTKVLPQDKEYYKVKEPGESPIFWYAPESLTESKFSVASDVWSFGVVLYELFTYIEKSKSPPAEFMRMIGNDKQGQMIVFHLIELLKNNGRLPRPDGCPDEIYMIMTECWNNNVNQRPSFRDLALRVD

SMILES | IC50 (K562) | IC50 (Karpas-299) | IC50 (Ba/F3) | IC50 (InsR) | IC50 (H929 (multiple myeloma)) | IC50 (Alk) | IC50 (Jak2) | IC50 (IGF1R tyrosine kinase)
Cc1c(Cl)cccc1OC[C@H](O)CNc1cc[nH]c(=O)c1-c1nc2cc3c(cc2[nH]1)C(=O)N(C1CCN(CCN(C)C)CC1)C3=O [compound 127] | > 15 µM | > 15 µM | > 15 µM | 0.5 to 5 µM | > 15 µM | 0.5 to 5 µM | 0.5 to 5 µM | < 0.5 µM
Cc1ccc(OC[C@H](O)CNc2cc[nH]c(=O)c2-c2nc3cc4c(cc3[nH]2)C(=O)N(C2CCN(CCO)CC2)C4=O)c(C)c1 [compound 123] | > 15 µM | > 15 µM | > 15 µM | 0.5 to 5 µM | > 15 µM | 0.5 to 5 µM | 0.5 to 5 µM | < 0.5 µM
O=C1c2cc3nc(-c4c(NC[C@@H](O)c5cccc(Cl)c5)cc[nH]c4=O)[nH]c3cc2C(=O)N1CCCN1CCCC1 [compound 35] | > 15 µM | > 15 µM | > 15 µM | < 0.5 µM | 5 to 15 µM | 0.5 to 5 µM | 0.5 to 5 µM | < 0.5 µM
COc1ccc(OCC(O)CNc2cc[nH]c(=O)c2-c2nc3cc4c(cc3[nH]2)C(=O)N(C2CCN(C)CC2)C4=O)cc1 (stereo not shown) [compound 42] | 5 to 15 µM | > 15 µM | > 15 µM | 0.5 to 5 µM | 5 to 15 µM | 5 to 15 µM | 5 to 15 µM | < 0.5 µM
Cc1ccc(OC[C@H](O)CNc2cc[nH]c(=O)c2-c2nc3c(C)c4c(cc3[nH]2)C(=O)N(C2CCN(C)CC2)C4=O)c(C)c1Cl [compound 137] | > 15 µM | > 15 µM | > 15 µM | < 0.5 µM | > 15 µM | 5 to 15 µM | 0.5 to 5 µM | 0.5 to 5 µM
Cc1ccc(OC[C@H](O)CNc2cc[nH]c(=O)c2-c2nc3cc4c(cc3[nH]2)C(=O)N(C2CCN(CCN(C)C)CC2)C4=O)c(C)c1 [compound 126] | 5 to 15 µM | 0.5 to 5 µM | 0.5 to 5 µM | 0.5 to 5 µM | 5 to 15 µM | 5 to 15 µM | 0.5 to 5 µM | < 0.5 µM
O=C1c2cc3nc(-c4c(NC[C@@H](O)COc5c(F)ccc(Cl)c5F)cc[nH]c4=O)[nH]c3cc2C(=O)N1C1CCN(CCO)CC1 [compound 125] | > 15 µM | > 15 µM | > 15 µM | 0.5 to 5 µM | > 15 µM | 0.5 to 5 µM | 0.5 to 5 µM | < 0.5 µM
Cc1c(Cl)cccc1OC[C@H](O)CNc1cc[nH]c(=O)c1-c1nc2cc3c(cc2[nH]1)C(=O)N(CC(C)(C)CN(C)C)C3=O [compound 117] | > 15 µM | 5 to 15 µM | > 15 µM | < 0.5 µM | > 15 µM | 5 to 15 µM | 0.5 to 5 µM | < 0.5 µM
Cc1ccc(OC[C@H](O)CNc2cc[nH]c(=O)c2-c2nc3cc4c(cc3[nH]2)C(=O)N(CCCN2CCCC2)C4=O)c2c1CCC2 [compound 114] | > 15 µM | > 15 µM | > 15 µM | < 0.5 µM | > 15 µM | 0.5 to 5 µM | 0.5 to 5 µM | < 0.5 µM
CN1CCC(N2C(=O)c3cc4nc(-c5c(NCC(O)COc6cccc(Cl)c6)cc[nH]c5=O)[nH]c4cc3C2=O)CC1 (stereo not shown) [compound 38] | 5 to 15 µM | > 15 µM | > 15 µM | 0.5 to 5 µM | 0.5 to 5 µM | 0.5 to 5 µM | 0.5 to 5 µM | 0.5 to 5 µM
Cc1ccc(OC[C@H](O)CNc2cc[nH]c(=O)c2-c2nc3cc4c(cc3[nH]2)C(=O)N(CC2CCN(CCO)CC2)C4=O)c(C)c1 [compound 118] | > 15 µM | 5 to 15 µM | > 15 µM | < 0.5 µM | > 15 µM | 0.5 to 5 µM | 0.5 to 5 µM | < 0.5 µM
O=C1c2cc3nc(-c4c(NC[C@@H](O)COc5c(F)ccc(Cl)c5F)cc[nH]c4=O)[nH]c3cc2C(=O)N1C1CCN(CCCO)CC1 [compound 136] | > 15 µM | > 15 µM | > 15 µM | 0.5 to 5 µM | > 15 µM | 0.5 to 5 µM | 0.5 to 5 µM | < 0.5 µM
CN1CCC(N2C(=O)c3cc4nc(-c5c(NC[C@@H](O)COc6ccc7c8c6CCCN8CCC7)cc[nH]c5=O)[nH]c4cc3C2=O)CC1 [compound 86] | 5 to 15 µM | 5 to 15 µM | > 15 µM | 5 to 15 µM | > 15 µM | 0.5 to 5 µM | 0.5 to 5 µM | 0.5 to 5 µM
Cc1c(Cl)cccc1OC[C@H](O)CNc1cc[nH]c(=O)c1-c1nc2cc3c(cc2[nH]1)C(=O)N(C1CCN(CCO)CC1)C3=O [compound 124] | > 15 µM | 5 to 15 µM | > 15 µM | 0.5 to 5 µM | > 15 µM | 0.5 to 5 µM | 0.5 to 5 µM | 0.5 to 5 µM
